IC50 data for three molecules are collected here from patent US10414740B2, “Glutaminase inhibitors and method of use” (Agios Pharmaceuticals, Inc., priority 2012, dated 2019).

Molecules are shown by their SMILES.

The target of this test is T1, glutaminase (GAC) (Homo sapiens, UniProt O94925).
T1 sequence (O94925 55-598 isoform O94925-3 limits assumed): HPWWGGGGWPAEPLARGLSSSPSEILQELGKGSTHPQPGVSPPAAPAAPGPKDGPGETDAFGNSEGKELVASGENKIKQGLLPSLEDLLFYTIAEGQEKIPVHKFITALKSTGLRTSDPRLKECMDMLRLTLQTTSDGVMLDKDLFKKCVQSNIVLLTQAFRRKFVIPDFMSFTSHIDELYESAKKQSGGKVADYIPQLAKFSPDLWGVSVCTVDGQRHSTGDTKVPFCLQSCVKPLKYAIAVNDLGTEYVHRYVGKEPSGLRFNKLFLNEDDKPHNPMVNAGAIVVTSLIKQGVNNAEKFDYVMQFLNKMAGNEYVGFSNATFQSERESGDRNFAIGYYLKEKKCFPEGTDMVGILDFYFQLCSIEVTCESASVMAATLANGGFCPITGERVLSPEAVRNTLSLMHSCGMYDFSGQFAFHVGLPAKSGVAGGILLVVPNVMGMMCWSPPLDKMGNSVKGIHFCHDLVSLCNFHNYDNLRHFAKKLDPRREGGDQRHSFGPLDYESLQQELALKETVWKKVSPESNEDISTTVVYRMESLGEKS
In words: glutaminase coupled endpoint assay (Example A). In kind it is biochemical. To be noted: inhibition of glutaminase; IC50 tested in an assay of Example A or Example B. In a few lines:
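Coupled endpoint read-out: glutamate from GAC is converted by excess GDH, and diaphorase recycles NADH to NAD while reducing resazurin to fluorescent resorufin, so loss of signal means inhibition. Compound in DMSO is preincubated with enzyme for 60 min at room temperature before substrate is added. Hits are counterscreened against GDH/diaphorase alone.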
Consider `COc1ccccc1CC(=O)Nc1nnc(CCCCc2nnc(NC(=O)Cc3ccccc3OC)s2)s1` [Compound 132, N,N′-(5,5′-(butane-1,4-diyl)bis(1,3,4-thiadiazole-5,2-diyl))bis(2-(2-methoxyphenyl)acetamide)], for which the 50% inhibitory concentration (IC50) is under 100 nM. For the molecule `O=C(CC1OC(=O)c2ccccc21)Nc1nnc(CCCCc2nnc(NC(=O)CC3OC(=O)c4ccccc43)s2)s1` (stereo not drawn) [Compound 93, N,N′-(5,5′-(butane-1,4-diyl)bis(1,3,4-thiadiazole-5,2-diyl))bis(2-(3-oxo-1,3-dihydroisobenzofuran-1-yl)acetamide)], the IC50 was 100 to 500 nM.

`CC(C(=O)Nc1nnc(CCCCc2nnc(NC(=O)C(C)c3ccc(N4Cc5ccccc5C4=O)cc3)s2)s1)c1ccc(N2Cc3ccccc3C2=O)cc1` (stereo not drawn) [Compound 50, N,N′-(5,5′-(butane-1,4-diyl)bis(1,3,4-thiadiazole-5,2-diyl))bis(2-(4-(1-oxoisoindolin-2-yl)phenyl)propanamide)] returned an IC50 of 100 to 500 nM.
